The source of these data is patent US20240400547A1, “2,6-PIPERIDINEDIONE COMPOUND AND APPLICATION THEREOF” (MEDSHINE DISCOVERY INC., priority 2021, published 2024).

Structures can show the parent of a compound that is named as a salt.

For one assay, the system named is SU-DHL-2. Description: Antiproliferative effect in lymphoma cell line SU-DHL-2 (CellTiter-Glo). It is filed as cell-based, human. The following applies: SU-DHL-2, 4 days. The procedure:
Experimental purpose: The experiment aims to evaluate the inhibitory effects of the test compounds on cell proliferation in the lymphoma cell line SU-DHL-2.
The tumor cell lines were cultured in a 37° C., 5% CO2 incubator under the above culture conditions. Regular passage, and cells in logarithmic growth phase were taken for plating.
• (1) Cells were stained with trypan blue and viable cells were counted. • (2) The cell concentration was adjusted to an appropriate concentration.
• (3) 50 μL of cell suspension per well was added to the culture plate as shown in the figure above. • (4) The culture plate was cultured overnight in a 37° C., 5% CO2 incubator with 100% relative humidity.
Compounds were added using the Echo655 instrument. The volume of compound added was 50 nL, with a final DMSO concentration of 0.1%. The culture plate was centrifuged at 1000 rpm for 1 minute, then incubated for 4 days in an incubator at 37° C., 5% CO2, and with 100% relative humidity.
The following steps were performed according to the instructions of Promega CellTiter-Glo luminescent cell viability assay kit (Promega-G7573). • (1) CellTiter-Glo buffer was melted and brought to room temperature. • (2) CellTiter-Glo substrate was brought to room temperature. • (3) CellTiter-Glo working solution was prepared by adding CellTiter-Glo buffer to a vial of CellTiter-Glo substrate to dissolve the substrate; • (4) The mixture was slowly vortexed and shaken to be fully dissolved. • (5) The cell culture plate was taken out and left for 30 minutes to equilibrate to room temperature. • (6) 25 μL of CellTiter-Glo working solution was added per well (equal to half the volume of cell culture medium per well). The cell plate was wrapped in aluminum foil to be protected from light. • (7) The culture plate was shaken on an orbital shaker for 2 minutes to induce cell lysis. • (8) The culture plate was left at room temperature for 10 minutes to stabilize the luminescent signal. • (9) The luminescent signal was detected on a 2104 EnVision plate reader.
The inhibition rate (IR) of the test compound was calculated using the following formula: IR (%)=(1−(RLU compound/RLU blank control)/(RLU vehicle control−RLU blank control)×100%. The inhibition rates of compounds at different concentrations were calculated in Excel, and then GraphPad Prism software was used to plot inhibition curves and calculate relevant parameters, including minimum inhibition rate, maximum inhibition rate, and IC50.
A general note: Cellular ATP, detected with luciferase, serves as a proxy for viable cell number.

A further assay has as its target T1, IRAK4 (Homo sapiens, UniProt Q9NWZ3).
T1 construct: expressed in transfected cells; host or cells: K562 IRAK4-HiBiT cells
T1 sequence (Q9NWZ3 1-460): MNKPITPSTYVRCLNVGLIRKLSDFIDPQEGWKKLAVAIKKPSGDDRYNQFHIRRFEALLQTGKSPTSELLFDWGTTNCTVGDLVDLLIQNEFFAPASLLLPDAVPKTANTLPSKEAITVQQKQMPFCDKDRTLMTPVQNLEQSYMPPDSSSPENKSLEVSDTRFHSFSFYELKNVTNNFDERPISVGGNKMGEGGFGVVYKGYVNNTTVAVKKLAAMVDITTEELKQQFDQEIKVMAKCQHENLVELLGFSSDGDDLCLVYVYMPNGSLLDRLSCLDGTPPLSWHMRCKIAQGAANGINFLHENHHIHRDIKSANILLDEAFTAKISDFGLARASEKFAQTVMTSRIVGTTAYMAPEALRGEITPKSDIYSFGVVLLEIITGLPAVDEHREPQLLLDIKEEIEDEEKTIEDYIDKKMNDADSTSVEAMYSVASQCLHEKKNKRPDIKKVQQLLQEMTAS
In words: Target protein degradation in K562 IRAK4-HiBiT cells (Nano-Glo HiBiT). The settings on record: 16 to 18 hours; for Dmax: read-out: Maximum degradation rate. It counts as cell-based. The procedure: Experimental objective: The experiment aims to evaluate the degradation effect of the test compounds on the target protein IRAK4 in K562 IRAK4-HiBiT cells.
• Cells: K562 IRAK4-HiBiT cells • Culture medium: RPMI 1640+10% fetal bovine serum+2 mM glutamine+1 mM sodium pyruvate+penicillin/streptomycin. • Positive control: 1000 nM; negative control: 0.1% DMSO.
• (1). The powder of the compound to be tested was dissolved in DMSO to a storage concentration of 10 mM. A total of 9 μL of the 10 mM of the compound to be tested was manually pipetted into the 1st and 13th columns of the LDV plate using a pipettor; • (2). A volume of 6 μL of DMSO was added to columns 2-12 and 14-24 using a Multidrop Combi; • (3). A 3-fold dilution of the test compounds (3 μL+6 μL) was performed using Bravo, for columns 1-11 and 13-23; • (4). According to the plate layout, 25 nL of compound solution (columns 1-24 of the LDV plate) was transferred to the experimental plate using Echo; • (5) 25 nL of the 1 mM positive control solution was transferred to the assay plate as a 100% degradation control (i.e. LC, HPE), and 25 nL of DMSO was transferred to the assay plate as a 0% control (i.e. HC, ZPE).
• (1) The culture medium was discarded, and the cells were washed once with DPBS, digested with trypsin, counted, and prepared into a cell suspension of […]. • (2) Using the MultiDrop Combi at a medium speed, 25 μL/well of the cell suspension was added to the experimental plate containing the test compounds; • (3) The experimental plate containing cells was returned to the incubator and cultured for 16 to 18 hours at 37° C. and 5% CO2.
• (1). Using the MultiDrop Combi at a high speed, 25 μL/well of the assay reagent (NanoGlo lytic solution+substrate+LgBit protein) was added to the assay plate, followed by shaking for 10 minutes; • (2) The plate was centrifuged at 2000 rpm for 1 minute to remove any bubbles; • (3) Readings were obtained by using an Envision, US Luminescence reader.
To calculate the degradation rate (DR) of the test compounds, the following formula is used: IR (%)=(RLU vehicle control−RLU compound)/(RLU vehicle control−RLU positive control)×100%. The solvent control refers to the blank control. The degradation rates of compounds at different concentrations were calculated in Excel, and then XLFit software was used to plot inhibition curves and calculate relevant parameters, including minimum degradation rate, maximum degradation rate, and DC50.

The next assay addresses T2, IKZF1 (Homo sapiens, UniProt Q13422+Q96SW2).
T2 construct: host or cells: MM.1S cells
In words: In Cell Western of IKZF1 protein expression level in MM.1S cells. The following applies: IKZF1, MM.1S cells, 24 hours; for Dmax: MM1.S, read-out: Maximum degradation rate Dmax. It counts as cell-based. Here is the method: Experimental objective: The experiment aims to assess the degradation effect of the test compounds on IKZF1 and 1KZF3 proteins in MM.1S cells by evaluating the impact of the test compounds on the expression levels of IKZF1 and IZKZF3 proteins in MM.1S cells.
• Cell lines: MMN.1 S cell (sourced from ATCC; Cat. No CRL-2974) • Negative control: 0.100 DMSO.
• 1) Log phase MM.1 S cells were plated in a 96-well plate at 1.2×10^5 cells per well and cultured overnight; • 2) The next day, compounds were added with a starting concentration of 300 nM, diluted threefold across three replicate wells for 10 concentration gradients (including DMSO), and the cells were incubated for 24 hours in an incubator; • 3) The cells were centrifuged, and the supernatant was carefully removed. 150 μL of 4% paraformaldehyde fixative was added along the wall of the wells, avoiding contact with the bottom cells, and the cells were incubated at room temperature for 20 minutes; • 4) Lysis buffer was prepared by mixing 0.5 mL of 10% Triton X-100 with 49.5 mL of PBS until homogenous; • 5) 200 μL of lysis buffer was added along the well walls, again avoiding the bottom cells, and incubated on a shaker at room temperature for 5 minutes; • 6) The wells were washed four times; • 7) 150 μL of Licor […] Blocking Buffer was added along the well walls, avoiding the bottom cells, and the cells were incubated on a shaker at room temperature for 1.5 hours; • 8) Ikaros (D6N9Y) Rabbit mAb, Aiolos (D1C1E) Rabbit mAb and GAPDH mouse mAb (proteintech, 60004-1-Ig) were diluted at a 1:100 ratio using antibody dilution buffer; • 9) 50 μL of mixed antibody was added to each well with three replicate wells, and the cells were incubated overnight on a shaker at 4° C.; • 10) PBST (PBS with 0.1% Tween 20) was prepared; • 11) The primary antibodies were removed, and 200 μL of PBST was added along the well walls, avoiding the bottom cells, and the cells were incubated on a shaker at room temperature for 5 minutes; • 12) The wells were washed four times; • 13) Secondary antibody dilution buffer was prepared by adding Tween 20 to Licor […] Blocking Buffer to a final concentration of 0.2%; • 14) Fluorescent secondary antibodies were diluted in the dark at a 1:800 ratio. To 400 μL of secondary antibody dilution solution, 0.5 μL of each IRDye 800CW and IRDye 680CW (corresponding to the primary antibodies) was added. • 15) 50 μL of the diluted fluorescent secondary antibodies was added to each well and the cells were incubated on a shaker at room temperature in the dark for 60 minutes; • 16) The secondary antibodies were removed, and 200 μL of PBST was added along the well walls, avoiding the bottom cells, and the cells were incubated on a shaker at room temperature in the dark for 5 minutes; • 17) The wells were washed four times; immediately after washing, the Odyssey Gel Imaging System was used for detection at dual wavelengths of 700 nm and 800 nm.
Using GraphPad Prism 6 software, inhibition rate data was entered to fit the curve and calculate the DC50 value.

T2 sequence (Q13422 whole entry): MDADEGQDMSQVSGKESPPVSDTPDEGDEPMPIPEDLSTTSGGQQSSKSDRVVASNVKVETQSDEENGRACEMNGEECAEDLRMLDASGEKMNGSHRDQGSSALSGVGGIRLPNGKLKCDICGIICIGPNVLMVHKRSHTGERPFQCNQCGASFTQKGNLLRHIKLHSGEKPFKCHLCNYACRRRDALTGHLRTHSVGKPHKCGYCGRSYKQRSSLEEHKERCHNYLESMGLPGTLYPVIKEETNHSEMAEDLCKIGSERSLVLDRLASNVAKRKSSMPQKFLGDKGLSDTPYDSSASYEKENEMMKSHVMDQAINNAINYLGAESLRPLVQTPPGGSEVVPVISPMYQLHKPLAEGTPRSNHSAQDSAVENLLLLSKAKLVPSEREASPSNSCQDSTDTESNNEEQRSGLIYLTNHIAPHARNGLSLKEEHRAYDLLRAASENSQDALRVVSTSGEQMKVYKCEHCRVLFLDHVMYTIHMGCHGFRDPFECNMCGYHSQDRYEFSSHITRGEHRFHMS
T2 sequence (Q96SW2 whole entry): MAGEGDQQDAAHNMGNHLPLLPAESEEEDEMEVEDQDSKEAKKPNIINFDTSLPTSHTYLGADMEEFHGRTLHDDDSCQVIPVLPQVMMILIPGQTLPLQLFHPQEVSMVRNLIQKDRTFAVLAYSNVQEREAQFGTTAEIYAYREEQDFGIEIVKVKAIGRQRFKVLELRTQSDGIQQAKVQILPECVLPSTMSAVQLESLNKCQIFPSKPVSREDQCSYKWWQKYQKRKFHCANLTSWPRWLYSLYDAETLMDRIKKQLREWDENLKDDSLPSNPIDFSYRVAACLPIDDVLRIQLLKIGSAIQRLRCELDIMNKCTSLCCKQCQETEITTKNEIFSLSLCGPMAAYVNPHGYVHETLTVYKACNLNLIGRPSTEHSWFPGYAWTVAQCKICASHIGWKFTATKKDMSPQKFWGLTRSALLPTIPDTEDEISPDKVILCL
T2 sequence (Q16531 whole entry partner): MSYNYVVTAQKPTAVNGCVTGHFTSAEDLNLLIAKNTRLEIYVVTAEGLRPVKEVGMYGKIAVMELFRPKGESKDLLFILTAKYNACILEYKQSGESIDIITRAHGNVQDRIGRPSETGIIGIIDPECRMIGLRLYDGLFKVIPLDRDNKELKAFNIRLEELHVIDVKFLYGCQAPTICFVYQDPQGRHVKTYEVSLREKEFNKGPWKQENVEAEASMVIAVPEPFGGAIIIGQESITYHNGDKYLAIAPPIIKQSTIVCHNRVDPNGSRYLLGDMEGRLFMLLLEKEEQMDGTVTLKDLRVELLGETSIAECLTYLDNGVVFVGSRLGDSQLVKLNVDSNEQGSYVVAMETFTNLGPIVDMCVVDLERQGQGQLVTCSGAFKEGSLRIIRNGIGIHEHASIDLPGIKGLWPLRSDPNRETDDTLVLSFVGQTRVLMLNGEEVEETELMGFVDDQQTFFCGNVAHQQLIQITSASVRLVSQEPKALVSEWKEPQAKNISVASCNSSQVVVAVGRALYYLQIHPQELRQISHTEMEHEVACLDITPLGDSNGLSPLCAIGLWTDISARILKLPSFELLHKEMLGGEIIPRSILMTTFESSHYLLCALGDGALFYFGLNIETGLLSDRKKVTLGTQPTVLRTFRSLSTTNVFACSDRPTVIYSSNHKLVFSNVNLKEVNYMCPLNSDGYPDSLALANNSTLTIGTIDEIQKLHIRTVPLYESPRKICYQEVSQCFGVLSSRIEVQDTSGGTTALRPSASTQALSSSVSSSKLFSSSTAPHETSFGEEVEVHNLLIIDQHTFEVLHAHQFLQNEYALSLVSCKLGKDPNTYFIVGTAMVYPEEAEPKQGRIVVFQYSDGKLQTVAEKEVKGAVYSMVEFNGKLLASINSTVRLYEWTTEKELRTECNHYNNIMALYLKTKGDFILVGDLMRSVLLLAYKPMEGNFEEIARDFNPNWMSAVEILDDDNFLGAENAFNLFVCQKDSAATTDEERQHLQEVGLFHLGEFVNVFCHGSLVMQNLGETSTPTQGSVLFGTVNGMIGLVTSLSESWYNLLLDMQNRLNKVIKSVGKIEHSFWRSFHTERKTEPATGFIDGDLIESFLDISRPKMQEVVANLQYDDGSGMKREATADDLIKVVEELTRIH

Regarding `CN(CCCOCCCc1ccc2occ(C3CCC(=O)NC3=O)c2c1)C[C@H]1CC[C@H](n2cc(NC(=O)c3coc(-c4ccnc(NCC5CC5)c4)n3)c(C(F)F)n2)CC1` (stereo partly shown) [Hydrochloride of WX004], it took 64.5 nM to reach half-maximal inhibition in the assay with SU-DHL-2 (Homo sapiens, 96 h) (IC50). The same compound had a Maximum inhibition rate in the assay with SU-DHL-2 of 99.05%.
As for `O=C1CCC(c2noc3ccc4cc(NC(=O)CN5CCN(CC6CCC(n7cc(NC(=O)c8coc(-c9ccnc(NCC%10CC%10)c9)n8)c(C(F)F)n7)CC6)CC5)ccc4c23)C(=O)N1` (stereo not shown) [Hydrochloride of WX015], the DC50 was 47.1 nM at IRAK4 and 7.7 nM at IKZF1. The Dmax at IRAK4 amounted to 100%; on IKZF1 it was 81.8%.
The matching figures for `CN(CCCOCCCc1ccc2c(ccc3onc(C4CCC(=O)NC4=O)c32)c1)C[C@H]1CC[C@H](n2cc(NC(=O)c3coc(-c4ccnc(NCC5CC5)c4)n3)c(C(F)F)n2)CC1` (stereo partly shown) [Hydrochloride of WX016]: 70.7 nM, 6.02 nM, 93.1% and 81.6%.
